Here are results for 22 molecules from PubChem BioAssay AID248 (DTP/NCI, 2004).

“And” between values parts separate entries of the source, which are not always exact repeats. Equal values may be shown once. Toxic doses and inconclusive results are not listed.

The test concerns L1210 leukemia ip in BDF1 mice, survival T/C. The experiment in a line: NCI In Vivo Anticancer Drug Screen. Data for tumor model L1210 Leukemia (intraperitoneal) in B6D2F1 (BDF1) mice. Particulars: endpoint: mean survival time, higher = longer survival. The method, boiled down:
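Transplanted-tumor mice were given test agent; controls received vehicle only. Survival readings from the two groups were divided (treated over control).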

Where [1] appears, read: dose: 100.0 mg/kg/injection, schedule: Q01DX009 (ip), vehicle: Klucel (hydroxypropylcellulose) (HPC).
[2] abbreviates: dose: 200.0 mg/kg/injection, schedule: Q01DX009 (ip), vehicle: Klucel (hydroxypropylcellulose) (HPC).
The mark [3] stands for this setting: dose: 400.0 mg/kg/injection, schedule: Q01DX009 (ip), vehicle: Klucel (hydroxypropylcellulose) (HPC).
Where [4] appears, read: dose: 50.0 mg/kg/injection, schedule: Q01DX009 (ip), vehicle: saline with Tween-80.
Where [5] appears, read: dose: 100.0 mg/kg/injection, schedule: Q01DX009 (ip), vehicle: saline with Tween-80.
Setting [6] is: dose: 200.0 mg/kg/injection, schedule: Q01DX009 (ip), vehicle: saline with Tween-80.
Setting [7] is: dose: 100.0 mg/kg/injection, schedule: Q04DX003 (ip), vehicle: saline with Tween-80.
The mark [8] stands for this setting: dose: 200.0 mg/kg/injection, schedule: Q04DX003 (ip), vehicle: saline with Tween-80.
The mark [9] stands for this setting: dose: 400.0 mg/kg/injection, schedule: Q01DX009 (ip), vehicle: saline with Tween-80.
Setting [10] is: dose: 400.0 mg/kg/injection, schedule: Q04DX003 (ip), vehicle: saline with Tween-80.
Where [11] appears, read: dose: 100.0 mg/kg/injection, schedule: Q01DX001 (ip), vehicle: carboxymethylcellulose (CMC).
[12] abbreviates: dose: 200.0 mg/kg/injection, schedule: Q01DX001 (ip), vehicle: carboxymethylcellulose (CMC).
Setting [13] is: dose: 400.0 mg/kg/injection, schedule: Q01DX001 (ip), vehicle: carboxymethylcellulose (CMC).

Regarding `COc1ccc2c(c1)NCc1c(Br)cc(Br)cc1C2=O`, the T/C is 94 % of control (dose: 100.0 mg/kg/injection, schedule: Q01DX009 (ip), vehicle: saline); 93 % of control (dose: 200.0 mg/kg/injection, schedule: Q01DX009 (ip), vehicle: saline); 91 % of control (dose: 400.0 mg/kg/injection, schedule: Q01DX009 (ip), vehicle: saline).

Turning to `C/C(=C1/SC(=S)NC1=O)c1ccccc1O`, the T/C by setting is: (dose: 100.0 mg/kg/injection, schedule: Q01DX001 (ip), vehicle: saline) 104 % of control; (dose: 200.0 mg/kg/injection, schedule: Q01DX001 (ip), vehicle: saline) 104 % of control.

On to `Brc1ccc(C#Cc2ccccc2)cc1`, for which the T/C by setting is: under setting [1], 100 % of control; under setting [2], 100 % of control; under setting [3], 108 % of control.

For `O=C(N/N=C/Cc1ccccc1)C(=O)N/N=C/Cc1ccccc1`, the T/C runs as follows: under setting [4], 102 % of control; under setting [5], 91 % of control.

Regarding `O=C(c1ccccc1)c1ccc(O)c2ncccc12`, the T/C reads like this: (dose: 100.0 mg/kg/injection, schedule: Q04DX002 (ip), vehicle: Klucel (hydroxypropylcellulose) (HPC)) 102 % of control; (dose: 200.0 mg/kg/injection, schedule: Q04DX002 (ip), vehicle: Klucel (hydroxypropylcellulose) (HPC)) 102 % of control; (dose: 400.0 mg/kg/injection, schedule: Q04DX002 (ip), vehicle: Klucel (hydroxypropylcellulose) (HPC)) 98 % of control.

For the molecule `S=C(NC1CC2C=CC1C2)N1CCCCC1` (stereo not given), the T/C was 106 % of control under setting [4], 100 % of control under setting [5] and 95 % of control under setting [6].

As to `CC(=O)OCC(C)([N+](=O)[O-])[N+](=O)[O-]`, the T/C under setting [5] was 93 % of control; the T/C under setting [7] was 95 % of control; the T/C under setting [6] is 90 % of control; the T/C under setting [8] was 101 % of control; the T/C under setting [9] was 91 % of control; the T/C under setting [10] is 103 % of control.

Turning to `COC(=O)NC1C(C)C=CC(C)C1I` (stereo not given), the T/C was 109 % of control (dose: 100.0 mg/kg/injection, schedule: Q01DX009 (ip), vehicle: other); 104 % of control under setting [7]; 96 % of control (dose: 200.0 mg/kg/injection, schedule: Q01DX009 (ip), vehicle: other); 98 % of control under setting [8]; 113 % of control (dose: 400.0 mg/kg/injection, schedule: Q01DX009 (ip), vehicle: other); 97 % of control under setting [10].

Take `O=C1c2ccccc2C(=Cc2ccccc2)c2ccccc21`: the T/C under setting [5] is 107 % of control; the T/C under setting [7] is 101 % of control; the T/C under setting [6] was 107 % of control; the T/C under setting [8] was 100 % of control; the T/C under setting [9] was 104 % of control; the T/C under setting [10] is 92 % of control.

For `CC(C)Cn1cnc2c(=S)nc(N)[nH]c21`, the T/C is, setting by setting: (dose: 6.0 mg/kg/injection, schedule: Q01DX015 (ip), vehicle: other) 107 % of control; (dose: 9.0 mg/kg/injection, schedule: Q01DX015 (ip), vehicle: carboxymethylcellulose (CMC)) 103 % of control; (dose: 9.0 mg/kg/injection, schedule: Q01DX015 (ip), vehicle: other) 111 % of control; (dose: 13.0 mg/kg/injection, schedule: Q01DX015 (ip), vehicle: carboxymethylcellulose (CMC)) 104 % of control; (dose: 20.0 mg/kg/injection, schedule: Q01DX015 (ip), vehicle: carboxymethylcellulose (CMC)) 109 % of control; (dose: 21.0 mg/kg/injection, schedule: Q01DX015 (ip), vehicle: other) 150 % of control. Also, the T/C (dose: 22.0 mg/kg/injection, schedule: Q01DX001 (ip), vehicle: carboxymethylcellulose (CMC)) was 114 % of control; the T/C (dose: 44.0 mg/kg/injection, schedule: Q01DX015 (ip), vehicle: carboxymethylcellulose (CMC)) was 109 % of control; the T/C (dose: 60.0 mg/kg/injection, schedule: Q01DX015 (ip), vehicle: other) was 124 % of control; the T/C (dose: 66.0 mg/kg/injection, schedule: Q01DX015 (ip), vehicle: carboxymethylcellulose (CMC)) is 98 % of control; the T/C under setting [11] was 155 % of control; the T/C (dose: 100.0 mg/kg/injection, schedule: Q01DX015 (ip), vehicle: carboxymethylcellulose (CMC)) was 98 % of control. Besides, the T/C is 121 % of control (dose: 100.0 mg/kg/injection, schedule: Q01DX015 (ip), vehicle: other); 153 % of control and 161 % of control under setting [12]; 112 % of control under setting [13].

For the molecule `COC(=O)CCCCCCCCCC(=O)OC`, the T/C is, setting by setting: (dose: 100.0 mg/kg/injection, schedule: Q01DX001 (ip), vehicle: Klucel (hydroxypropylcellulose) (HPC)) 100 % of control; under setting [1], 97 % of control; (dose: 200.0 mg/kg/injection, schedule: Q01DX001 (ip), vehicle: Klucel (hydroxypropylcellulose) (HPC)) 101 % of control; under setting [2], 96 % of control; (dose: 400.0 mg/kg/injection, schedule: Q01DX001 (ip), vehicle: Klucel (hydroxypropylcellulose) (HPC)) 95 % of control; under setting [3], 94 % of control.

With `Nc1[nH]c(=S)[nH]c(=S)c1N`, the T/C (dose: 125.0 mg/kg/injection, schedule: Q01DX Z (ip), vehicle: methylcellulose (MC)) is 101 % of control.

Consider `O=C(C[n+]1ccc2ccccc2c1)c1cccc([N+](=O)[O-])c1`, for which the T/C is 105 % of control under setting [7], 97 % of control under setting [8] and 100 % of control under setting [10].

On to `Cc1[nH]c(N)nc(=S)c1CCC(=O)O`, for which the T/C under setting [1] is 96 % of control; the T/C (dose: 100.0 mg/kg/injection, schedule: Q04DX003 (ip), vehicle: Klucel (hydroxypropylcellulose) (HPC)) was 98 % of control; the T/C under setting [2] is 96 % of control; the T/C (dose: 200.0 mg/kg/injection, schedule: Q04DX003 (ip), vehicle: Klucel (hydroxypropylcellulose) (HPC)) is 93 % of control; the T/C under setting [3] was 98 % of control; the T/C (dose: 400.0 mg/kg/injection, schedule: Q04DX003 (ip), vehicle: Klucel (hydroxypropylcellulose) (HPC)) was 90 % of control.

Take `CCCC(CCCC(=O)O)C(=O)O` (stereo not given): the T/C (dose: 50.0 mg/kg/injection, schedule: Q01DX001 (ip), vehicle: carboxymethylcellulose (CMC)) was 86 % of control; the T/C under setting [11] is 90 % of control; the T/C under setting [12] is 92 % of control; the T/C under setting [13] is 90 % of control.

In the case of `NCCCC1C2CCC(C2)C1CN` (stereo not given), where the note is “dose: 100.0 mg/kg/injection, schedule: Q04DX002 (ip), vehicle: alcohol”, the T/C was 98 % of control.

As for `C[P+](c1ccc(Cl)cc1)(c1ccc(Cl)cc1)c1ccc(Cl)cc1`, the T/C was 114 % of control (dose: 6.25 mg/kg/injection, schedule: Q04DX003 (ip), vehicle: saline); 109 % of control (dose: 12.5 mg/kg/injection, schedule: Q04DX003 (ip), vehicle: saline); 102 % of control (dose: 25.0 mg/kg/injection, schedule: Q04DX003 (ip), vehicle: saline).

Take `N#CCCN(C(=O)Nc1ccccc1)C1CCCCC1`: the T/C (dose: 100.0 mg/kg/injection, schedule: Q01DX Z (ip), vehicle: methylcellulose (MC)) is 101 % of control and the T/C (dose: 200.0 mg/kg/injection, schedule: Q01DX Z (ip), vehicle: methylcellulose (MC)) is 89 % of control.

With `CSc1ccc(NC(=O)Nc2cc(C(C)C)ccc2C)cc1`, the T/C under setting [1] was 103 % of control, the T/C under setting [2] is 104 % of control and the T/C under setting [3] was 98 % of control.

For `CCOCCOCCC(=O)OC`, the T/C is 95 % of control (dose: 62.5 mg/kg/injection, schedule: Q01DX001 (ip), vehicle: Klucel (hydroxypropylcellulose) (HPC)); 89 % of control (dose: 125.0 mg/kg/injection, schedule: Q01DX001 (ip), vehicle: Klucel (hydroxypropylcellulose) (HPC)); 113 % of control (dose: 250.0 mg/kg/injection, schedule: Q01DX001 (ip), vehicle: Klucel (hydroxypropylcellulose) (HPC)).

With `NC(N)=N/C(N)=N/Nc1ccc([N+](=O)[O-])cc1[N+](=O)[O-]`, the T/C runs as follows: (dose: 12.5 mg/kg/injection, schedule: Q04DX002 (ip), vehicle: saline with Tween-80) 98 % of control; (dose: 25.0 mg/kg/injection, schedule: Q04DX002 (ip), vehicle: saline with Tween-80) 93 % of control; (dose: 100.0 mg/kg/injection, schedule: Q04DX002 (ip), vehicle: saline with Tween-80) 88 % of control.

Take `CCOc1cc(/C=N\NC(=O)CCCC(=O)N/N=C/c2ccc(O)c(OCC)c2)ccc1O`: the T/C under setting [12] was 95 % of control.
